Test results: BindingDB's records for doi:10.1080/14756360400002007 (Crefsip, 2005)

How the values were obtained:
[1] = target: T1, Probable glutamate--tRNA ligase, mitochondrial (Mus musculus, UniProt Q9CXJ1); experiment: Determination of the Inhibition Type and Constant (Ki); conditions: pH 8; 30 °C
T1 sequence (Q9CXJ1 whole entry): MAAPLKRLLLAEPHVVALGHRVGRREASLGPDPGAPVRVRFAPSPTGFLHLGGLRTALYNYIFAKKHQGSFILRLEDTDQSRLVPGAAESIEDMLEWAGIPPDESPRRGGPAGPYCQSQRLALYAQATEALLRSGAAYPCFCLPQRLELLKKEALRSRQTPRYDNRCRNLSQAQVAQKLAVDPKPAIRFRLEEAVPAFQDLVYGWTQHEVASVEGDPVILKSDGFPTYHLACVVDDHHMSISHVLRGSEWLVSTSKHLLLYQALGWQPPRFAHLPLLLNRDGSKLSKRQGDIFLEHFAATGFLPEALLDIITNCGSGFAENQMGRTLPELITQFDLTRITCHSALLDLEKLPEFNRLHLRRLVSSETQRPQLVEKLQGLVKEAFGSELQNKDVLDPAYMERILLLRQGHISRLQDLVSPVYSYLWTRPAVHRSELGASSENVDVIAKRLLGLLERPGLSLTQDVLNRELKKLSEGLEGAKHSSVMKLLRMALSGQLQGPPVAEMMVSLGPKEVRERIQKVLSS
Protocol: (§1) The Km and Kappm for the amino acid substrate were first calculated from Lineweaver-Burk plots. The Ki values were calculated from the Kappm vs [I] plot. The Ki values for the inhibitors with respect for the amino acid substrates were determined by measuring the apparent Km for the amino acid in the presence of saturating concentrations of both ATP and tRNA, and of various fixed concentrations of the inhibitor.

[2] = target: T2, Glutamate--tRNA ligase (Escherichia coli (strain K12), UniProt P04805); experiment: as above; conditions: pH 7.2; 37 °C
T2 sequence (P04805 whole entry): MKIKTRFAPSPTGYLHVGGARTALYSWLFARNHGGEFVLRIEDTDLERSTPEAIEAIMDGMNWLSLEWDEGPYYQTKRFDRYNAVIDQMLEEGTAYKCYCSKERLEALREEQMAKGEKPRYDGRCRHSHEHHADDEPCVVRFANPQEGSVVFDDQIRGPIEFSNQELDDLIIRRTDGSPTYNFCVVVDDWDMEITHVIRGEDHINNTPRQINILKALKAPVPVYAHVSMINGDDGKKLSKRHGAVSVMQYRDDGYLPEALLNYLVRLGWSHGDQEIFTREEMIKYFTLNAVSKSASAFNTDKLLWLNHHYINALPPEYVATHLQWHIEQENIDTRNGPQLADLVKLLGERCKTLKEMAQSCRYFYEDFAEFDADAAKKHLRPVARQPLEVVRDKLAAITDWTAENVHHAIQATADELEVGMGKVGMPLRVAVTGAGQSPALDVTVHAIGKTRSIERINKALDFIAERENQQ
Protocol: as §1

| Compound | Ki [1] | Ki [2] |
| --- | --- | --- |
| Nc1ncnc2c1ncn2[C@@H]1O[C@H](COS(=O)(=O)NC(=O)[C@@H](N)CCC(=O)O)[C@@H](O)[C@H]1O [5-O-[N-(L-Glutamyl)-sulfamoyl]adenosine 5] | 70 nM | 2.8 nM |
| Nc1ncnc2c1ncn2[C@@H]1O[C@H](COS(=O)(=O)NC(=O)[C@@H]2CCC(=O)N2)[C@@H](O)[C@H]1O [(5S)-5-{[({[(2R,3S,4R,5R)-5-(6-amino-9H-purin-9-yl)-3,4-dihydroxyoxolan-2-yl]methoxy}sulfonyl)amino]carbonyl}pyrrolidin-2-one] |  | 15000 nM |
